Test [1] has as its system E. coli SK2. Nature of the test: MBC/MFC determination. It counts as cell-based, Escherichia coli. To be noted: alone. The procedure: (§1) An assay was made using a minimum inhibitory concentration (MIC) and minimum bactericidal concentration (MBC) and minimum fungicidal concentration (MFC) determination. The MIC was determined by the micro broth dilution method in 96-well plates. Serial two-fold dilutions of tetrasodium EDTA (from 2% to 0.015%), ethanol (from 50% to 0.1%) and chlorhexidine HCl (from 100 μg/mL to 0.025 μg/mL) were prepared in MH broth with a final volume of 90 μL per well. A 10 μL containing 1×10^5 bacterial cells or 2×10^3 fungal cells were added to each well. The inoculated plates were covered with a lid, sealed with Parafilm, and incubated for 24 h at 37° C. with slight rocking on a tilting platform shaker. After incubation, the optical density at 600 nm (OD 600) of the cultures in each well was measured using an xMark™ Microplate Absorbance Spectrophotometer (Bio-Rad). […] MBCs and MFCs were determined by transferring 100 μL from each well with no apparent growth onto appropriate agar plates, followed by incubation for 24 h at 37° C.

The test system of test [2] is C. albicans ON47. Nature of the test: MBEC assay, 48-h biofilm, 24 h exposure. It counts as cell-based, Candida albicans. The protocol:
A biofilm cultivation cell composition was provided. This fifth composition was created using an MBEC Assay® biofilm inoculator, consisting of a polystyrene lid with 96 downward-protruding pegs and a corresponding base used to grow biofilms. A standardized inoculum was diluted in an appropriate biofilm growth medium to achieve a viable cell count of 1.5×10^6 CFU/mL of bacterial cells or 5×10^5 CFU/mL of fungal cells. Then, 150 μL of this inoculum was transferred into each appropriate well, and the peg lids were inserted into the microtiter plates. The plates were sealed with Parafilm and were incubated at optimum temperature for 48 h with slight rocking for bacteria and shaking at 200 rpm for fungal strains. After incubation, the peg lid was removed from the base and rinsed twice with sterile phosphate-buffered saline (PBS) for 2 min to remove loosely attached non-sessile cells. Before the antimicrobial challenge, the pegs in column 1 (n=8) were considered the biofilm growth control; these pegs were removed from the lids, placed into 200 μL of recovery medium, and analyzed for starting biofilm cell numbers as described below. The rinsed pegs were placed into new 96-well plates containing two-fold dilutions of antimicrobials such as tetrasodium EDTA (4%-0.0125%), ethanol (100%-0.2%), and chlorhexidine HCl (100 μg/mL-0.4 μg/mL) in 200 μL of suitable biofilm growth medium per well and incubated at optimum temperature for 24 h. After the antimicrobial challenge, the pegs were rinsed twice with sterile PBS for 2 min and placed into a new 96-well plate containing 200 μL of recovery medium. The recovery plates were sealed with Parafilm, and biofilm cells were dislodged from the pegs by sonication for 30 min with a Branson 3510 bath sonicator. The biofilm cells in the recovery medium were serially diluted, and a drop dilution assay was performed to enumerate the viable cells. MBEC values were determined as the minimum concentration of antimicrobials that yielded a viable cell count at or lower than the 125 CFU/mL detection limit.

Test [3] has as its system E. coli SK2. Nature of the test: Checkerboard titration, FICI. It counts as cell-based, Escherichia coli. The conditions noted are these: for concentration in combination: EDTA + ethanol. The protocol:
(§2) A fourth composition and solution included tetrasodium EDTA with ethanol or chlorhexidine HCl. This fourth composition and solution were created using checkerboard titration methods using micro broth dilution in 96-well microtiter plates. The concentrations of antimicrobials used were based on previously determined MIC values. Briefly, 200 μL, of two-fold dilutions of tetrasodium EDTA and ethanol or chlorhexidine HCl were prepared in MH or MH II broth with standardized cell suspension. […] Microtiter plates were incubated at 37° C. for 24 h, and the results were analyzed. Each test was performed in duplicate and included a growth control without adding any antimicrobials.

Test [4] relates to S. epidermidis SK9. Nature of the test: Checkerboard, FMCI. Type of test: cell-based, Staphylococcus epidermidis. The conditions noted are these: for microbicidal concentration in combination: EDTA + ethanol. The procedure: as §1, §2
For test [5], the system named is C. albicans ON47. Nature of the test: MBC/MFC determination. It counts as cell-based, Candida albicans. To be noted: alone. The protocol:
as §1

Test [6] relates to Staphylococcus aureus ON89. Nature of the test: FBEC index, checkerboard on biofilms. It counts as cell-based. The conditions noted are these: for biofilm eradication concentration in combination (FBEC): EDTA + ethanol.
Protocol: In step (4), microtiter plates are incubated at 37° C. for 24 h. then (6), after incubation, the bacterial and fungal cells were dislodged from the pegs into the recovery medium described above.
Three 10-μL aliquots, for a total of 30 μL from each well of recovery medium, were spotted on MH agar plates and incubated for 24 h at 37° C. […] The FBEC determination is a modification of the FICI.
The test system of test [7] is Staphylococcus epidermidis ON170. Nature of the test: MIC, micro broth dilution. It counts as cell-based. The conditions noted are these: alone. The procedure: as §1
The subject of test [8] is Staphylococcus aureus ON89. Nature of the test: MIC, micro broth dilution. It counts as cell-based. To be noted: alone. The protocol:
as §1
For orientation: Dilution methods test growth across graded concentrations, often in twofold steps.

Test [9] concerns Escherichia coli ON29. Nature of the test: MIC, micro broth dilution. Type of test: cell-based. The conditions noted are these: alone. The protocol: as §1
In test [10] the test system is Candida albicans SK4b. Nature of the test: MIC, micro broth dilution. Type of test: cell-based. To be noted: alone. The protocol: as §1
For test [11], the system named is Proteus mirabilis ON153. Nature of the test: MIC, micro broth dilution. It counts as cell-based. To be noted: alone. The procedure:
as §1

Test [12] deals with Pseudomonas aeruginosa SK1. Nature of the test: MIC, micro broth dilution. The conditions noted are these: alone. Type of test: cell-based. The protocol:
as §1

In test [13] the test system is Stenotrophomonas maltophilia ON17. Nature of the test: MIC, micro broth dilution. It counts as cell-based. To be noted: alone. The protocol:
as §1

Test [14] has as its system Serratia marcescens SK2. Nature of the test: MIC, micro broth dilution. It counts as cell-based. The conditions noted are these: alone. The procedure: as §1
For test [15], the system named is C. albicans ON47. Nature of the test: MIC, micro broth dilution. To be noted: alone. It counts as cell-based, Candida albicans. The protocol:
as §1

The test system of test [16] is S. epidermidis SK9. Nature of the test: MIC, micro broth dilution. It counts as cell-based, Staphylococcus epidermidis. The conditions noted are these: alone. The protocol:
as §1

The subject of test [17] is 48-h-old biofilms of all of the test organisms. Nature of the test: Rapid biofilm eradication, 2-h exposure. It counts as cell-based. To be noted: two h of exposure; preformed biofilms. The procedure: Determining rapid biofilm eradication by tetrasodium EDTA, ethanol, and chlorhexidine HCl alone and in combination was performed. After biofilm formation, control pegs (n=6) were removed and analyzed to determine the starting biofilm cell numbers via the drop dilution method. The 48-h old biofilms on the pegs were exposed to different concentrations of test antimicrobials, dissolved in an appropriate growth medium, for two h to evaluate their efficacy alone and in combination. Antimicrobial solutions tested against each organism included each agent alone at the MBEC, double combinations at the FBEC, and triple combinations ranging from 5 to 20% ethanol, 2.5-5 μg/mL chlorhexidine HCl and 1-3% tetrasodium EDTA. Following treatment, pegs were washed twice with sterile PBS, and the biofilm cells were dislodged into recovery medium and enumerated as described above.
The method for rapid biofilm eradication ability of test antimicrobials alone and in combination against 48-h-old biofilms within two h exposure time included (1) choosing different concentrations of test antimicrobials to assess their potency in eradicating preformed biofilms of study organisms within two h. Then (2) the quantitative recovery from biofilms following exposure to the antimicrobial solutions for bacterial strains (FIGS. 9A-9B) and fungal strains (FIG. 5) was evaluated.

Test [18] concerns E. coli SK2. Nature of the test: MIC, micro broth dilution. Type of test: cell-based, Escherichia coli. The conditions noted are these: alone. The protocol:
as §1

Where a name gives a salt, the structure may show the parent alone. Read-outs that look alike come from different tables or passages of the source.

Experimental findings from patent US20230263757A1, “DISINFECTING WIPE KIT FOR CENTRAL VENOUS ACCESS DEVICES” (SterileCare Inc., priority 2022, published 2023) are described below.

For the compound `[H]/N=C(\N/C(=N/[H])NCCCCCCNC(=N)NC(=N)Nc1ccc(Cl)cc1)Nc1ccc(Cl)cc1` [Chlorhexidine HCl, 1,6-bis(4′-chlorophenylbiguanide) hexane], the results for the MBC/MFC in test [1] and in test [5] were 0.8 µg/mL and 3.125 µg/mL, respectively. The same compound gave an MBEC in [2] of 25 µg/mL. In test [3] (EDTA + chlorhexidine HCl), the “Chlorhexidine HCl concentration in combination” value was 0.1 µg/mL. In addition, the “Chlorhexidine HCl microbicidal concentration in combination” value in [4] (EDTA + chlorhexidine HCl) is 0.4 µg/mL. The “Chlorhexidine HCl biofilm eradication concentration in combination (FBEC)” value in test [6] (EDTA + chlorhexidine HCl) came to 3.125 µg/mL. For the same compound, the MIC in test [7] (read-out: MIC) amounted to 0.1 µg/mL; in test [8] (read-out: MIC), 0.1 µg/mL; in test [9] (read-out: MIC), 0.4 µg/mL; in [10] (read-out: MIC), 1.6 µg/mL; in test [11] (read-out: MIC), 50 µg/mL; in test [12] (read-out: MIC), 1.6 µg/mL. Moreover, the MIC in test [13] (read-out: MIC) was 0.8 µg/mL; in test [14] (read-out: MIC), 12.5 µg/mL; in test [15] (Candida albicans, read-out: MIC), 1.6 µg/mL; in test [16] (Staphylococcus epidermidis, read-out: MIC), 0.1 µg/mL; in test [18] (Escherichia coli, read-out: MIC) it was 0.4 µg/mL. Besides, the “biofilm eradication at the MBEC alone” value in test [17] is on record as “failed to eradicate”.

In the case of `O=C([O-])CN(CCN(CC(=O)[O-])CC(=O)[O-])CC(=O)[O-].[Na+].[Na+].[Na+].[Na+]` [EDTA, tetrasodium EDTA], the figures for the MBC/MFC in [1] and in test [5] were 0.5 % w/v and 1 % w/v, respectively. Besides, the MBEC in [2] was found to be 1 % w/v. Besides, the “EDTA concentration in combination” value in [3] (EDTA + chlorhexidine HCl) turned out to be 0.008 % w/v. Further, in test [3], the concentration in combination is 0.015 % w/v. Besides, the “EDTA microbicidal concentration in combination” value in test [4] (EDTA + chlorhexidine HCl) worked out at 0.008 % w/v. Further, in test [4], the “microbicidal concentration in combination” value is on record as 0.031 % w/v. The “EDTA biofilm eradication concentration in combination (FBEC)” value in [6] (EDTA + chlorhexidine HCl) came out at 0.125 % w/v. For the same compound, in test [6], the “biofilm eradication concentration in combination (FBEC)” value came out at 0.063 % w/v. The MIC was determined as 0.063 % w/v in [7]; 0.063 % w/v in [8]; 0.5 % w/v in test [9]; 1 % w/v in [10]; 1 % w/v in test [11]; 0.25 % w/v in test [12]. The MIC came to 0.063 % w/v in test [13]; 2 % w/v in test [14]; 1 % w/v in test [15]; 0.063 % w/v in test [16]; 0.5 % w/v in test [18]. For the same compound, the “biofilm eradication at the MBEC alone” value in [17] was “failed to eradicate”.

Regarding `CCO` [Ethanol, ethanol], the MBC/MFC amounted to 25 % w/v in [1] and 6.25 % w/v in test [5]. This compound also had an MBEC in [2] of 12.5 % w/v. Moreover, in test [3], the concentration in combination is 6.25 % w/v. In addition, the “microbicidal concentration in combination” value in test [4] stood at 3.125 % w/v. Also, the “biofilm eradication concentration in combination (FBEC)” value in [6] is 0.8 % w/v. Moreover, the MIC in [7] worked out at 3.125 % w/v; in test [8], 6.25 % w/v; in [9] it was 12.5 % w/v; in test [10] it was 6.25 % w/v; in test [11], 6.25 % w/v; in [12], 3.125 % w/v. Moreover, the MIC in test [13] was found to be 6.25 % w/v; in [14] it was 6.25 % w/v; in [15], 6.25 % w/v; in test [16] it was 6.25 % w/v; in test [18], 12.5 % w/v. Further, the “biofilm eradication at the MBEC alone” value in test [17] is given as “failed to eradicate”.
